# According to ChEMBL document CHEMBL6096649, “Enantiomeric C-6 fluorinated swainsonine derivatives as highly selective and potent inhibitors of α-mannosidase and α-l-rhamnosidase: Design, synthesis and structure-activity relationship study” (Eur J Med Chem, 2025):
# The source made the active and inactive calls. The rule behind the calls is not given here.
# Tests used:
# [1] = Inhibition of Penicillium decumbens alpha-L-rhamnosidase using p-nitrophenyl glycoside as substrate assessed as release of p-nitrophenol by spectrometric analysis
# Alpha-mannosidase [2] = molecular target: T1, Alpha-mannosidase (Canavalia ensiformis, UniProt C0HJB3); experiment: Inhibition of jack bean alpha-mannosidase using p-nitrophenyl glycoside as substrate assessed as release of p-nitrophenol by spectrometric analysis
# T1 sequence (C0HJB3 whole entry): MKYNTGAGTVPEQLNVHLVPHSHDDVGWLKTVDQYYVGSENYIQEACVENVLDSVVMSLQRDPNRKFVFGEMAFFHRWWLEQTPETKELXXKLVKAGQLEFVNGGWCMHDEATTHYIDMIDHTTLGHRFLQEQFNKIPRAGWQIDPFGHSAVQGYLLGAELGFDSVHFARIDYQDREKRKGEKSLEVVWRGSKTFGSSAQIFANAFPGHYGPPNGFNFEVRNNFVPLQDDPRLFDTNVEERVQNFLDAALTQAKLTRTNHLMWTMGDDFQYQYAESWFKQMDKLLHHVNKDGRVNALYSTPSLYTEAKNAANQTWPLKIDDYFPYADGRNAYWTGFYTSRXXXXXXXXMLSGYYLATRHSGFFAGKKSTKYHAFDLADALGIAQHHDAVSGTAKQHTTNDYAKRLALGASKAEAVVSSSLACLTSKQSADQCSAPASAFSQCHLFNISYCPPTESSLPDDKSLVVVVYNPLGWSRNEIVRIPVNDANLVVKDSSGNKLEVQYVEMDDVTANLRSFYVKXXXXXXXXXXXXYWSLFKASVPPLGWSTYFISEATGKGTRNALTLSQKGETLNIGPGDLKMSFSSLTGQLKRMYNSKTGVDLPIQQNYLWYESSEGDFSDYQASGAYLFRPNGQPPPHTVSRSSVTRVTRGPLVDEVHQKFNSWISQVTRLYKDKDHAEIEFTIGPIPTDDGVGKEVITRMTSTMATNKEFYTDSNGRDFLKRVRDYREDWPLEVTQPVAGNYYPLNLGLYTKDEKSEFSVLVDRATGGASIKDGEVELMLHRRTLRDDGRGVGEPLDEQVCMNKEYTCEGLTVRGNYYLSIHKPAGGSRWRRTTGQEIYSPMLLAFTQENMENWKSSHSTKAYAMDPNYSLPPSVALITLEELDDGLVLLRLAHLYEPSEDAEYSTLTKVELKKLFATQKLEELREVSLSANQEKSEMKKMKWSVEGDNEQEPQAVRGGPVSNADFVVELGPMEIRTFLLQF
# Alpha-mannosidase [3] = molecular target: T1, Alpha-mannosidase; experiment: Inhibition of jack bean Alpha-mannosidase using p-nitrophenyl glycoside as substrate
# [4] = Inhibition of human liver Alpha-mannosidase
# [5] = molecular target: Alpha-glucosidase (Saccharomyces cerevisiae S288c) (UniProt P53341+P38158+P07265); experiment: Inhibition of yeast Alpha-glucosidase using p-nitrophenyl glycoside as substrate assessed as p-nitrophenol release at 1000 uM by spectrometric analysis relative to control; assay type: protein assay
# Oryza sativa = experiment: Inhibition of rice Alpha-glucosidase using p-nitrophenyl glycoside as substrate assessed as p-nitrophenol release at 1000 uM by spectrometric analysis relative to control
# Rattus norvegicus = species: Rattus norvegicus; experiment: Inhibition of rat intestinal Alpha-glucosidase using p-nitrophenyl glycoside as substrate assessed as p-nitrophenol release at 1000 uM by spectrometric analysis relative to control
# [6] = molecular target: Alpha glucosidase (Homo sapiens) (UniProt O43451+P10253+P14410+Q2M2H8); experiment: Inhibition of human Alpha-glucosidase using p-nitrophenyl glycoside as substrate assessed as p-nitrophenol release at 1000 uM by spectrometric analysis relative to control; assay type: protein assay
# Prunus dulcis = experiment: Inhibition of almond Beta-glucosidase using p-nitrophenyl glycoside as substrate assessed as release of p-nitrophenol at 1000 uM by spectrometric analysis relative to control
# Bos taurus [7] = species: Bos taurus; experiment: Inhibition of bovine liver beta-glucosidase using p-nitrophenyl glycoside as substrate assessed as release of p-nitrophenol at 1000 uM by spectrometric analysis relative to control
# Homo sapiens [8] = species: Homo sapiens; experiment: Inhibition of human lysosome beta-glucosidase using p-nitrophenyl glycoside as substrate assessed as release of p-nitrophenol at 1000 uM by spectrometric analysis relative to control
# [9] = molecular target: Alpha-galactosidase (Coffea arabica) (UniProt Q42656); experiment: Inhibition of coffee bean alpha-galactosidase using p-nitrophenyl glycoside as substrate assessed as release of p-nitrophenol at 1000 uM by spectrometric analysis relative to control
# Bos taurus [10] = species: Bos taurus; experiment: Inhibition of bovine liver beta-galactosidase using p-nitrophenyl glycoside as substrate assessed as release of p-nitrophenol at 1000 uM by spectrometric analysis relative to control
# [11] = molecular target: T2, Alpha-mannosidase (Canavalia ensiformis) (UniProt C0HJB3); experiment: Inhibition of jack bean alpha-mannosidase using p-nitrophenyl glycoside as substrate assessed as release of p-nitrophenol at 1000 uM by spectrometric analysis relative to control
# T2 sequence (whole entry): T1 sequence (C0HJB3 whole entry)
# Helix pomatia = experiment: Inhibition of snail beta-mannosidase using p-nitrophenyl glycoside as substrate assessed as release of p-nitrophenol at 1000 uM by spectrometric analysis relative to control
# Aspergillus niger = experiment: Inhibition of Aspergillus niger amyloglucosidase using p-nitrophenyl glycoside as substrate assessed as release of p-nitrophenol at 1000 uM by spectrometric analysis relative to control
# Penicillium decumbens = experiment: Inhibition of Penicillium decumbens alpha-L-rhamnosidase using p-nitrophenyl glycoside as substrate assessed as release of p-nitrophenol at 1000 uM by spectrometric analysis relative to control
# Escherichia coli = experiment: Inhibition of Escherichia coli beta-glucuronidase using p-nitrophenyl glycoside as substrate assessed as release of p-nitrophenol at 1000 uM by spectrometric analysis relative to control
# Bos taurus [12] = species: Bos taurus; experiment: Inhibition of bovine liver beta-glucuronidase using p-nitrophenyl glycoside as substrate assessed as release of p-nitrophenol at 1000 uM by spectrometric analysis relative to control
# Sus scrofa = species: Sus scrofa; experiment: Inhibition of porcine kidney Alpha alpha-trehalase using p-nitrophenyl glycoside as substrate assessed as release of p-nitrophenol at 1000 uM by spectrometric analysis relative to control
# CAKI-1 = experiment: Cytotoxicity activity against human CAKI-1 cells incubated for 48 hrs by CCK-8 assay; assay type: functional, cell-based; details: CAKI-1, 48 h
# 786-0 = experiment: Cytotoxicity activity against human 786-0 cells incubated for 48 hrs by CCK-8 assay; assay type: functional, cell-based; details: 786-0, 48 h
# HepG2 = experiment: Cytotoxicity activity against human HepG2 cells incubated for 48 hrs by CCK-8 assay; assay type: functional, cell-based; details: HepG2, 48 h
# Homo sapiens [13] = species: Homo sapiens; experiment: Inhibition of human liver Alpha-mannosidase relative to control
# Chain of Alpha-galactosidase (Coffea arabica) (Q42656 16-378 limits assumed): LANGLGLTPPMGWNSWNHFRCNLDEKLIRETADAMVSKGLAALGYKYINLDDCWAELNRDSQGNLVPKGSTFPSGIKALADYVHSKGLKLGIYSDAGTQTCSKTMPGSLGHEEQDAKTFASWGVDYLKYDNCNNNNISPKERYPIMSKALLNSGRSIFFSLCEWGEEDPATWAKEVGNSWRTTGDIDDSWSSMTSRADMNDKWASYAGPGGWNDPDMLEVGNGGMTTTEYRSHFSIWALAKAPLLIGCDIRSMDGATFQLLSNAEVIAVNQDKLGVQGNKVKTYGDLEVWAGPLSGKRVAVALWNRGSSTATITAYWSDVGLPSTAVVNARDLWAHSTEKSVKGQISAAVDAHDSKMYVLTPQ
compound,measurement,setting,value
O[C@@H]1[C@@H]2[C@@H](O)[C@H](O)[C@H](O)CN2C[C@@H]1O,IC50,[1],530 µM
O=C(C[C@H]1CC[C@@H](O)[C@@H]2[C@H](O)[C@H](O)CN12)c1ccccc1,IC50,Alpha-mannosidase [2],0.51 µM
C[C@@H]1C[C@H](O)[C@H]2[C@@H](O)[C@@H](O)CN2C1,IC50,[1],0.034 µM
NCC/N=C1/N[C@H](CO)[C@@H](O)[C@@H](O)[C@@H]1O,Ki,Alpha-mannosidase [3],0.006 µM
same,Ki,[4],6 µM
CC(C)(C)c1ccc(C(=O)C[C@@H]2CC[C@@H](O)[C@@H]3[C@H](O)[C@H](O)CN23)cc1,IC50,Alpha-mannosidase [2],2.54 µM
O[C@@H]1[C@@H]2[C@@H](O)CCCN2C[C@@H]1O,IC50,[1],0.13 µM
same,inhibition,[5],0%
same,inhibition,Oryza sativa,0%
same,inhibition,Rattus norvegicus,26.5%
same,inhibition,[6],3.4%
same,inhibition,Prunus dulcis,7.4%
same,inhibition,Bos taurus [7],33%
same,inhibition,Homo sapiens [8],4.8%
same,inhibition,[9],0%
same,inhibition,Bos taurus [10],48.3%
same,inhibition,[11],7.2%
same,inhibition,Helix pomatia,0%
same,inhibition,Aspergillus niger,17.7%
same,inhibition,Penicillium decumbens,0.26%
same,inhibition,Escherichia coli,11.3%
same,inhibition,Bos taurus [12],0%
CC(C)(C)c1ccc(CC[C@@H]2CC[C@@H](O)[C@@H]3[C@H](O)[C@H](O)CN23)cc1,IC50,Alpha-mannosidase [2],3.7 µM
O[C@H]1[C@H]2[C@H](O)C[C@H](F)CN2C[C@H]1O,inhibition,[5],1.7%
same,inhibition,Rattus norvegicus,19.1%
same,inhibition,[6],6.6%
same,inhibition,Prunus dulcis,2.1%
same,inhibition,Bos taurus [7],2.6%
same,inhibition,Homo sapiens [8],6%
same,inhibition,[9],0%
same,inhibition,Bos taurus [10],0%
same,inhibition,[11],0.78%
same,inhibition,Helix pomatia,5%
same,inhibition,Sus scrofa,4.1%
same,inhibition,Aspergillus niger,6.4%
same,inhibition,Penicillium decumbens,14.4%
same,inhibition,Escherichia coli,11.3%
same,inhibition,Bos taurus [12],6.8%
same,IC50,CAKI-1,> 200 µM
same,IC50,786-0,> 200 µM
same,IC50,HepG2,> 200 µM
CCCC[C@H]1CCN2C[C@@H](O)[C@@H](O)[C@H]2[C@@H]1O,inhibition,Homo sapiens [13],inactive
O[C@H]1[C@H]2[C@H](O)C[C@H](CCOCc3ccccc3)CN2C[C@H]1O,IC50,Alpha-mannosidase [2],230 µM
CC(C)(C)c1ccc(CC[C@H]2CC[C@@H](O)[C@@H]3[C@H](O)[C@H](O)CN23)cc1,IC50,Alpha-mannosidase [2],0.42 µM
O[C@H]1[C@H]2[C@H](O)C[C@@H](F)CN2C[C@H]1O,inhibition,[5],2.2%
same,inhibition,Rattus norvegicus,22.8%
same,inhibition,[6],5.6%
same,inhibition,Prunus dulcis,0.5%
same,inhibition,Bos taurus [7],5.1%
same,inhibition,Homo sapiens [8],0.4%
same,inhibition,[9],0%
same,inhibition,Bos taurus [10],0.8%
same,inhibition,[11],0.5%
same,inhibition,Helix pomatia,0%
same,inhibition,Sus scrofa,2.5%
same,inhibition,Aspergillus niger,11.8%
same,inhibition,Penicillium decumbens,8.3%
same,inhibition,Escherichia coli,0%
same,inhibition,Bos taurus [12],2.6%
same,IC50,CAKI-1,> 200 µM
same,IC50,786-0,> 200 µM
same,IC50,HepG2,> 200 µM
C[C@@H]1[C@H](O)[C@H]2[C@@H](O)[C@@H](O)CN2C[C@@]1(C)O,IC50,[1],21.3 µM
O[C@H]1[C@H]2[C@H](O)CC(F)(F)CN2C[C@H]1O,inhibition,[5],0%
same,inhibition,Rattus norvegicus,11.6%
same,inhibition,[6],8.9%
same,inhibition,Prunus dulcis,3.2%
same,inhibition,Bos taurus [7],23.7%
same,inhibition,Homo sapiens [8],0%
same,inhibition,[9],0.6%
same,inhibition,Bos taurus [10],13.3%
same,inhibition,[11],0.44%
same,inhibition,Helix pomatia,40%
same,inhibition,Sus scrofa,0%
same,inhibition,Aspergillus niger,2.7%
same,inhibition,Penicillium decumbens,20.4%
same,inhibition,Escherichia coli,0%
same,inhibition,Bos taurus [12],16.7%
same,IC50,CAKI-1,> 200 µM
same,IC50,786-0,> 200 µM
same,IC50,HepG2,> 200 µM
OC[C@H]1O[C@H](O[C@H]2[C@H]3[C@H](O)CCCN3C[C@H]2O)[C@H](O)[C@@H](O)[C@@H]1O,inhibition,Homo sapiens [13],inactive
